# Like-named read-outs stand apart in the source and are kept apart here.
# How the values were obtained:
# 5HT2 receptor = target: T1, 5HT2 receptor (Mus musculus, UniProt P35363); assay: (5-MeO-DMT) head twitch test; assay type: in vivo, mice; conditions: ip, read-out: ED50 FOR ABOLITION OF HEAD TWITCH
# T1 construct: The administration of 5-methoxy-N,N-dimethyltryptamine 5-MeO-DMT to mice typically produces a characteristic head twitch in the mice; from tissue; host or cells: living mice (in vivo, endogenous receptor)
# Experimental: Psychopharmacol., Vol. 3, pages 89-92, (1979). The administration of 5-methoxy-N,N-dimethyltryptamine 5-MeO-DMT to mice typically produces a characteristic head twitch in the mice. In this test, the mice are administered 5-MeO-DMT and a test compound. An absence of head twitches in the mice is considered to be predictive of the ability of the test compound to antagonize the 5HT2 receptor in vivo.
# thrombus formation = conditions: canine models; Bush et al., Drug Development Research, Vol. 7, 319-340 (1986); cited from earlier work
# coronary vessel = conditions: patients with stable angina; Golino et al, NEJM 1991; 324:641-648; cited from earlier work
# [1] = tested on: preference for both alcohol and cocaine; conditions: rodent model of drug abuse; Meert et al; cited from earlier work
# coronary vessels = conditions: patients with stable angina, intracoronary infusion, McFadden et al, cited from earlier work
# [2] = mice, 5-MeO-DMT induced head twitch
# T1 sequence (P35363 whole entry): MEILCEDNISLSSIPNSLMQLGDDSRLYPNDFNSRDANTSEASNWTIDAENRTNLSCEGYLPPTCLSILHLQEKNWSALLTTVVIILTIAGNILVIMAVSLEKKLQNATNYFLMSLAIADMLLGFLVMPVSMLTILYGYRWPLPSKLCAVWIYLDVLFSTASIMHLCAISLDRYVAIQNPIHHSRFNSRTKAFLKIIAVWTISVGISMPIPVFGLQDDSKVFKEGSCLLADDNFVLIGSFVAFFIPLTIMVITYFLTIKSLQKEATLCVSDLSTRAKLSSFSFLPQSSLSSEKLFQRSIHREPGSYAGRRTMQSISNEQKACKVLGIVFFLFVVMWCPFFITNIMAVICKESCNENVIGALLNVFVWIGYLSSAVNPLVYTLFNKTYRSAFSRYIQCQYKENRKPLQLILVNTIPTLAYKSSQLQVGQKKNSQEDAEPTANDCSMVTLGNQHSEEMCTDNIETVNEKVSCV
smiles,measurement,setting,value
"OC(c1ccccc1)C1CCN(CCc2ccccc2)CC1 (racemic) [Compound B racemic, α-phenyl-1-(2-phenylethyl)-4-piperidinemethanol]",ED50,5HT2 receptor; [2],3.28 mg/kg
"COc1cccc(C(O)C2CCN(CCc3ccccc3)CC2)c1OC (racemic) [Compound C racemic, α-(2,3-dimethoxyphenyl)-1-(2-phenylethyl)-4-piperidinemethanol]",ED50,5HT2 receptor,2.04 mg/kg
"OC(c1ccccc1)C1CCN(CCc2ccccc2)CC1 (single isomer, unassigned) [Compound B (+)-isomer, α-phenyl-1-(2-phenylethyl)-4-piperidinemethanol]",ED50,5HT2 receptor; [2],0.87 mg/kg
"COc1cccc(C(O)C2CCN(CCc3ccc(F)cc3)CC2)c1OC (single isomer, unassigned) [Invention, (+)-α-(2,3-dimethoxyphenyl)-1-[2-(4-fluorophenyl)ethyl]-4-piperidinemethanol]",ED50,5HT2 receptor,0.03 mg/kg
O=C(c1ccc(F)cc1)C1CCN(CCn2c(=O)[nH]c3ccccc3c2=O)CC1 [Ketanserin],preventing thrombus formation,thrombus formation,extremely effective in preventing thrombus formation
same,coronary vessel constriction,coronary vessel,blocked coronary vessel constriction in patients with stable angina
Cc1nc2sccn2c(=O)c1CCN1CCC(=C(c2ccc(F)cc2)c2ccc(F)cc2)CC1 [ritanserin],preference for both alcohol and cocaine,[1],abolished the preference for both alcohol and cocaine
NCCc1c[nH]c2ccc(O)cc12 [serotonin],anginal attacks during infusions,coronary vessels,experienced anginal attacks during these infusions
same,constriction of the coronary vessels,"coronary vessels; all concentrations tested, NEJM 1991, 324:648-654",induced constriction of the coronary vessels in these patients at all concentrations tested
